Laboratory results: ChEMBL document CHEMBL1147737, “4-(3'alpha15'beta-dihydroxy-5'beta-estran-17'beta-yl)furan-2-methyl alcohol: an anti-digoxin agent with a novel mechanism of action” (2006)
Activity calls are given as the source filed them.

What was measured:
NT2 = test: Inhibition of digoxin-induced transferrin accumulation in NT2 cells; assay type: functional, cell-based; details: Homo sapiens
Cavia porcellus [1] = organism: Cavia porcellus; test: Inhibition of 1 uM digoxin-induced increase in the force of contraction in guinea pig papillary muscle at 10 uM; assay type: functional
Cavia porcellus [2] = organism: Cavia porcellus; test: Inhibition of digoxin-induced arrhythmias in guinea pig papillary muscle; assay type: functional
[3] = system: Sodium/potassium-transporting ATPase (Cavia porcellus); test: Binding affinity to CS receptor on Na+-ATPase; details: filed as antagonist
[4] = system: Sodium/potassium-transporting ATPase (Cavia porcellus); test: Binding affinity to CS receptor on K(+)-ATPase; details: filed as antagonist

Measured: Activity

C[C@]12CC[C@H]3[C@@H](CC[C@@H]4C[C@H](O)CC[C@@H]43)[C@@H]1[C@H](O)C[C@@H]2c1coc(CO)c1
active: NT2 | Cavia porcellus [1] | Cavia porcellus [2] | [3] Antagonist | [4] Antagonist
